Source: paper PMC10419416, “Fighting Pseudomonas aeruginosa Infections: Antibacterial and Antibiofilm Activity of D-Q53 CecB, a Synthetic Analog of a Silkworm Natural Cecropin B Variant” (International Journal of Molecular Sciences, 2023)
Converted amounts (≈) assume the structure as drawn. Like-named read-outs stand apart in the source and are kept apart here.

Tests used:
[1] = system: P. aeruginosa ATCC 25668, ATCC 27853, and PAO1-L strains; experiment: microbe, parasite or virus in culture; format: cell-based, Pseudomonas aeruginosa; details: Pseudomonas aeruginosa; LB medium, 24 h, 37 °C, OD600; same value for all three strains; triplicate, at least three experiments
Description: (§1) The following strains were used: P. aeruginosa ATCC 27853, ATCC 25668, and PAO1-L (Lausanne subline). All strains were grown at 37 °C in Luria Bertani (LB) medium or in Luria Bertani Agar (LBA) plates.
(§2) The antibacterial activities of L- and D-Q53 CecB were evaluated by determining (i) the MIC and (ii) the MBC. Tobramycin (Merck) was used as an antibiotic control. (i) An overnight (ON) bacterial culture was diluted to 1 × 10^6 cells/mL in LB medium. 50 µL/well were seeded in sterile polypropylene 96-well plates (Corning, Corning, NY, USA) and added with 50 µL LB medium, containing serial dilutions of each compound (final concentrations of L- and D-Q53 CecB peptides from 1.1 to 35.2 µM; final concentrations of tobramycin from 0.26 to 17 μM; each condition in triplicate). Microbial suspensions in the growing medium (positive control) and wells with only the medium (negative controls) were processed in parallel. Plates were incubated 24 h at 37 °C with agitation (300 rpm), and the absorbance was measured at 600 nm in a microplate reader. The MIC was considered as the lowest concentration determining a delta optical density at 600 nm (ΔOD600) equal to 0 ± 0.05. The ΔOD600 was determined by subtracting the OD600 recorded at time 0 from that obtained after 24 h. Each experiment was performed at least three times. […] For each sample, 100 μL of 1:10, 1:100, and 1:1000 dilutions were plated on LBA plates, and colonies were counted after 24 h at 37 °C. […] Each experiment was performed at least twice.

[2] = system: P. aeruginosa ATCC 27853 and ATCC 25668 strains; experiment: microbe, parasite or virus in culture; format: cell-based, Pseudomonas aeruginosa; details: Pseudomonas aeruginosa, 24 h
Description: as §1, §2

[3] = system: P. aeruginosa PAO1-L strain; experiment: microbe, parasite or virus in culture; format: cell-based, Pseudomonas aeruginosa; details: Pseudomonas aeruginosa, value between parentheses, 24 h, 37 °C, plating on LBA
Description: as §1, §2

[4] = system: P. aeruginosa ATCC 25668, mucoid strain; format: cell-based, Pseudomonas aeruginosa; details: for biofilm biomass vs untreated controls (biofilm formation): 24 h
Description: (§3) An ON bacterial culture was diluted to 2 × 10^6 cells/mL in an LB medium. 50 µL/well were seeded in a sterile non-treated polystyrene 96-well plate (Corning) and added with 50 µL LB medium containing serial dilutions of each compound (final concentrations of L- and D-Q53 CecB peptides: from 0.034 to 17.6 µM; final concentrations of tobramycin: 0.27 and 0.53 μM, and from 2.14 to 17 μM). Each condition was tested in three-six replicates. Wells containing untreated bacteria (negative controls) or LB medium only (blank) were followed in parallel. Each plate was incubated for 24 h at 37 °C without agitation. After washing twice, samples were stained with a 0.1% crystal violet solution for 20 min, washed three times, and incubated in 30% acetic acid for 20 min, as in [74]. Plates were read at 595 nm using a microplate reader. For each sample, the biofilm biomass percentage was calculated relative to that of the untreated control showing the highest OD value, set equal to 100%. Each experiment was performed at least twice.

[5] = system: P. aeruginosa ATCC 27853, non-mucoid strain; format: cell-based, Pseudomonas aeruginosa; details: for biofilm biomass vs untreated controls (biofilm formation): 24 h
Description: as §3

[6] = system: P. aeruginosa ATCC 25668, mucoid strain; experiment: Degradation of pre-formed 24 h old biofilm, crystal violet; format: cell-based, Pseudomonas aeruginosa; details: 1 h; L-Q53 CecB 1/2 to 8 MIC (except 4 MIC), tobramycin 1 to 8 MIC
Description: (§4) One hundred μL of bacteria (1 × 10^6 cells/mL), derived from a fresh ON culture, were seeded in a sterile non-treated polystyrene 96-well plate (Corning) and incubated for 24 h at 37 °C without agitation. […] Evaluation of biofilm biomass was performed using a crystal violet assay as described above (Section 4.8). Experiments were performed two-four times.

[7] = system: P. aeruginosa ATCC 27853, non-mucoid strain; experiment: as above; format: cell-based, Pseudomonas aeruginosa; details: 1 h; L-Q53 CecB 1/2 to 8 MIC, tobramycin 1 to 8 MIC
Description: as §4

[8] = system: T1, human neutrophil elastase; experiment: Enzymatic digestion with human neutrophil elastase, RP-HPLC; format: in vitro ADME; details: isolated enzyme elastase; peptide 1 mg/mL in 10 mM Tris-HCl pH 7.5, 20 U human leukocyte elastase, 37 °C, 5 h (300 min), RP-HPLC C18 peak integration; read-out: % of intact peptide
T1 construct: purchased Merck
Description: (§5) L- and D-Q53 CecB peptides, as well as the human LL-37 peptide (Merck, Burlington, MA, USA), were dissolved in 10 mM Tris-HCl, pH 7.5, at a final concentration of 1 mg/mL. Subsequently, 120 μL of each peptide solution were incubated at 37 °C with 20 U of human leukocyte elastase (Merck) or P. aeruginosa elastase (Elastin Products Company, Owensville, MO, USA) and 5 μL of 10 mM Tris-HCl, pH 7.5. At given time intervals (30, 60, 120, and 300 min), a volume corresponding to 30 μg of each peptide was diluted in 70 μL of 1% trifluoroacetic acid (TFA) to stop the reaction. Peptide suspensions,v without any enzyme (undigested controls), were processed in parallel. Each solution was analyzed by RP-HPLC, using a Phenomenex LC C18 analytical column (300 Å, […], 250 × 4.6 mm; Phenomenex, Torrance, CA, USA) and a Widepore C18 security guard cartridge (4 × 3.0 mm; Phenomenex, Torrance, CA, USA), in a 30 min-linear Acetonitrile (ACN) gradient (from 0% to 40% for L- and D-Q53 CecB peptides; from 20% to 60% for LL-37). A Waters Alliance 2695 Separations Module connected to a 996 PDA (Waters, Milford, MA, USA) was employed for RP-HPLC.

P. aeruginosa elastase = system: T2, P. aeruginosa elastase; experiment: Enzymatic digestion with P. aeruginosa elastase, RP-HPLC; format: in vitro ADME; details: isolated enzyme elastase; peptide 1 mg/mL in 10 mM Tris-HCl pH 7.5, 20 U P. aeruginosa elastase, 37 °C, 30 min, RP-HPLC C18 peak integration; read-out: % of full-length peptide
T2 construct: purchased Elastin Products Company
Description: as §5

[9] = concentrations from 8 to 1 MIC (1 MIC = 2.2 µM peptides, 2.14 µM tobramycin), 24 h static, 37 °C, stated for both strains

Row | Structure (SMILES) | MIC [1] | MBC [2] | MBC [3] | biofilm biomass vs untreated controls (biofilm formation) ([4]; 1/4 MIC) | biofilm biomass vs untreated controls (biofilm formation) ([4]; 1/8 MIC) | decrement in biofilm biomass vs untreated controls (inhibition of biofilm formation) [4, 9] | biofilm biomass vs untreated controls (biofilm formation) ([5]; 1/4 MIC) | biofilm biomass vs untreated controls (biofilm formation) ([5]; 1/8 MIC) | decrement in biofilm biomass vs untreated controls (inhibition of biofilm formation) [5, 9] | reduction of pre-formed biofilm biomass at all tested concentrations [6] | reduction of pre-formed biofilm biomass at all tested concentrations [7] | remaining at 5 h, 1 mg/mL [8] | remaining at 0.5 h, 1 mg/mL (P. aeruginosa elastase)
1 | NC[C@H]1O[C@H](O[C@H]2[C@H](O)[C@@H](O[C@H]3O[C@H](CO)[C@@H](O)[C@H](N)[C@H]3O)[C@H](N)C[C@@H]2N)[C@H](N)C[C@@H]1O [Tobramycin, reference compound] | 2.14 µM (≈ 1 µg/mL) | 4.29 µM (≈ 2.01 µg/mL) | 8.56 µM (≈ 4 µg/mL) | significantly higher | not significantly different | ~ 99.9% | not affected | not significantly different | ~ 99.9% | not efficient | not efficient | – | –
2 | CC[C@H](C)[C@H](NC(=O)[C@H](CCCCN)NC(=O)[C@H](CCC(=O)O)NC(=O)[C@H](CCCCN)NC(=O)[C@H](CO)NC(=O)[C@H](CCCCN)NC(=O)[C@H](CCCNC(=N)N)NC(=O)[C@H](Cc1ccccc1)NC(=O)[C@H](Cc1ccccc1)NC(=O)[C@H](CC(=O)O)NC(=O)CNC(=O)[C@H](CC(C)C)NC(=O)[C@@H](N)CC(C)C)C(=O)NCC(=O)N[C@@H](CCCCN)C(=O)N[C@@H](CCC(=O)O)C(=O)N[C@@H](Cc1ccccc1)C(=O)N[C@@H](CCCCN)C(=O)N[C@@H](CCCNC(=N)N)C(=O)N[C@H](C(=O)N[C@H](C(=O)N[C@@H](CCC(N)=O)C(=O)N[C@@H](CCCNC(=N)N)C(=O)N[C@H](C(=O)N[C@@H](CCCCN)C(=O)N[C@@H](CC(=O)O)C(=O)N[C@@H](Cc1ccccc1)C(=O)N[C@@H](CC(C)C)C(=O)N[C@@H](CCCNC(=N)N)C(=O)N[C@@H](CC(N)=O)C(=O)N[C@@H](CC(C)C)C(=O)N[C@H](C(=O)N1CCC[C@H]1C(=O)N[C@@H](CCCNC(=N)N)C(=O)N[C@H](C(=O)N[C@@H](CCC(=O)O)C(=O)N[C@@H](CO)C(=O)O)[C@@H](C)O)C(C)C)[C@@H](C)CC)C(C)C)[C@@H](C)CC [LL-37, reference compound] | – | – | – | – | – | – | – | – | – | – | – | 8.7% | ~0.2%
